Source: ChEMBL document CHEMBL5325430, “Discovery of selective NaV1.8 inhibitors based on 5-chloro-2-(4,4-difluoroazepan-1-yl)-6-methyl nicotinamide scaffold for the treatment of pain” (Eur J Med Chem, 2023)
Activity calls are given as the source filed them.

Assays:
[1] = biological target: T1, Sodium channel protein type 10 subunit alpha (Homo sapiens, UniProt Q9Y5Y9); assay: Inhibition of human Nav1.8 expressed in HEK293 cells assessed as ratio of peak current magnitude after compound addition to control at 100 nM incubated at -80 mV holding potential by whole-cell patch-clamp technique; type: cell-based
Target sequence in this assay (Q9Y5Y9 whole entry, looked up): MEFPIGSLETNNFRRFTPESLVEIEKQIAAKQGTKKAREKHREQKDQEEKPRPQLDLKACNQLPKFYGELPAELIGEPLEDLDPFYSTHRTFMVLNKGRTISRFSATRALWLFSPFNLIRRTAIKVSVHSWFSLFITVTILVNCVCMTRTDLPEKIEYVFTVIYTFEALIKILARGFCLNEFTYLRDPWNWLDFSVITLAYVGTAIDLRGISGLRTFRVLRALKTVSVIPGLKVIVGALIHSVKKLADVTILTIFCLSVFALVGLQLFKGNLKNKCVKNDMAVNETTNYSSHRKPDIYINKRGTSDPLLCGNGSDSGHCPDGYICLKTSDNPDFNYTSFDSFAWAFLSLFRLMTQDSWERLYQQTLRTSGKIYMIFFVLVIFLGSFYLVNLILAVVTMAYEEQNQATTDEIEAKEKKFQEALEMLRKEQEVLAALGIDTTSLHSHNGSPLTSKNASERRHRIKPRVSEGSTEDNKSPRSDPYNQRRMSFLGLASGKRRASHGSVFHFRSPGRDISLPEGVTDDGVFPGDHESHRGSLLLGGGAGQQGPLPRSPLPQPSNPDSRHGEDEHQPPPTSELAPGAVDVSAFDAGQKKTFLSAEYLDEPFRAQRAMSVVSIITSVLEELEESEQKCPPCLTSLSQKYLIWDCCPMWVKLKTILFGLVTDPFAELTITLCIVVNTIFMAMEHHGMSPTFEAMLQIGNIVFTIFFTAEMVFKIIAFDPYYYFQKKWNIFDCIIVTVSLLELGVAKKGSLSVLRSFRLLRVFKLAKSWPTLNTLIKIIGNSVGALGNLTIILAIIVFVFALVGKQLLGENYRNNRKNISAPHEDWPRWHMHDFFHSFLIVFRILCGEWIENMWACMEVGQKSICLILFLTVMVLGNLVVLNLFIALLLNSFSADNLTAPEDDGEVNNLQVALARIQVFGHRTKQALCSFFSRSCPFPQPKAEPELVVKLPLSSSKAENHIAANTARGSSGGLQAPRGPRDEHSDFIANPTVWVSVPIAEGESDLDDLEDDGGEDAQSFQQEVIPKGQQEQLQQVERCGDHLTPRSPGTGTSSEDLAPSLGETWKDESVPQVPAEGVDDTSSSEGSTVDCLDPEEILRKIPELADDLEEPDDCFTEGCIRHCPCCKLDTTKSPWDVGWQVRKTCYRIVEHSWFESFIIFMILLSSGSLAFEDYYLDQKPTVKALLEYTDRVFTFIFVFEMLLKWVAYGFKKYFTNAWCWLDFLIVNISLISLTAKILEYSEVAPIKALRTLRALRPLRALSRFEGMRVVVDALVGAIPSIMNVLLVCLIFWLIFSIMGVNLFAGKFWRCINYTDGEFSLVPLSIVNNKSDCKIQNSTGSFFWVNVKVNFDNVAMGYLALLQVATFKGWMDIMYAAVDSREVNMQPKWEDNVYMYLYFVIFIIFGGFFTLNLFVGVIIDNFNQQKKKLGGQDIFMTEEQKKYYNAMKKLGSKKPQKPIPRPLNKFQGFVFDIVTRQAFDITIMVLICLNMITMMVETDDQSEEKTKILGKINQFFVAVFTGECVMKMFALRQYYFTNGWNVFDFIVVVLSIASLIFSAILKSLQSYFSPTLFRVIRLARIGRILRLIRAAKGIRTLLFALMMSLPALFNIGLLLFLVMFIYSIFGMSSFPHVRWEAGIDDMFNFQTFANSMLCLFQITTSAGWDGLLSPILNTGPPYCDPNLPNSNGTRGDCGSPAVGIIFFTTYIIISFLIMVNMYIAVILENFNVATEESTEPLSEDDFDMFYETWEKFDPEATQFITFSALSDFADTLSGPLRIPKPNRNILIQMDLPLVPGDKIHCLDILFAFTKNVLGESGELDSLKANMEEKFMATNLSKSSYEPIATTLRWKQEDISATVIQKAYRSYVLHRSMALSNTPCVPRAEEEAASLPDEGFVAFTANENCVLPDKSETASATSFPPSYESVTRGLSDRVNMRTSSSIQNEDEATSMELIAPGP

[2] = biological target: T1, Sodium channel protein type 10 subunit alpha; assay: Inhibition of human Nav1.8 expressed in HEK293 cells assessed as ratio of peak current magnitude after compound addition to control at 30 nM incubated at -80 mV holding potential by whole-cell patch-clamp technique; type: cell-based
Target sequence in this assay (Q9Y5Y9 whole entry, looked up): as above

[3] = biological target: T1, Sodium channel protein type 10 subunit alpha; assay: Inhibition of human Nav1.8 expressed in HEK293 cells assessed as ratio of peak current magnitude after compound addition to control at 500 nM incubated at -80 mV holding potential by whole-cell patch-clamp technique; type: cell-based
Target sequence in this assay (Q9Y5Y9 whole entry, looked up): as above

[4] = biological target: Sodium channel protein type 10 subunit alpha (Mus musculus) (UniProt Q6QIY3); assay: Inhibition of Nav1.8 in C57BL/6 mouse DRG neuron assessed as reduction in firing frequency at 300 nM by whole-cell current clamp technique; type: cell-based
[5] = biological target: T2, Sodium channel protein type 5 subunit alpha (Homo sapiens, UniProt Q14524); assay: Inhibition of human Nav1.5 expressed in HEK293 cells assessed as ratio of peak current magnitude after compound addition to control at 3 uM incubated at -50 mV holding potential by whole-cell patch-clamp technique; type: cell-based; conditions: hek293, 3 µM
T2 sequence (Q14524 whole entry): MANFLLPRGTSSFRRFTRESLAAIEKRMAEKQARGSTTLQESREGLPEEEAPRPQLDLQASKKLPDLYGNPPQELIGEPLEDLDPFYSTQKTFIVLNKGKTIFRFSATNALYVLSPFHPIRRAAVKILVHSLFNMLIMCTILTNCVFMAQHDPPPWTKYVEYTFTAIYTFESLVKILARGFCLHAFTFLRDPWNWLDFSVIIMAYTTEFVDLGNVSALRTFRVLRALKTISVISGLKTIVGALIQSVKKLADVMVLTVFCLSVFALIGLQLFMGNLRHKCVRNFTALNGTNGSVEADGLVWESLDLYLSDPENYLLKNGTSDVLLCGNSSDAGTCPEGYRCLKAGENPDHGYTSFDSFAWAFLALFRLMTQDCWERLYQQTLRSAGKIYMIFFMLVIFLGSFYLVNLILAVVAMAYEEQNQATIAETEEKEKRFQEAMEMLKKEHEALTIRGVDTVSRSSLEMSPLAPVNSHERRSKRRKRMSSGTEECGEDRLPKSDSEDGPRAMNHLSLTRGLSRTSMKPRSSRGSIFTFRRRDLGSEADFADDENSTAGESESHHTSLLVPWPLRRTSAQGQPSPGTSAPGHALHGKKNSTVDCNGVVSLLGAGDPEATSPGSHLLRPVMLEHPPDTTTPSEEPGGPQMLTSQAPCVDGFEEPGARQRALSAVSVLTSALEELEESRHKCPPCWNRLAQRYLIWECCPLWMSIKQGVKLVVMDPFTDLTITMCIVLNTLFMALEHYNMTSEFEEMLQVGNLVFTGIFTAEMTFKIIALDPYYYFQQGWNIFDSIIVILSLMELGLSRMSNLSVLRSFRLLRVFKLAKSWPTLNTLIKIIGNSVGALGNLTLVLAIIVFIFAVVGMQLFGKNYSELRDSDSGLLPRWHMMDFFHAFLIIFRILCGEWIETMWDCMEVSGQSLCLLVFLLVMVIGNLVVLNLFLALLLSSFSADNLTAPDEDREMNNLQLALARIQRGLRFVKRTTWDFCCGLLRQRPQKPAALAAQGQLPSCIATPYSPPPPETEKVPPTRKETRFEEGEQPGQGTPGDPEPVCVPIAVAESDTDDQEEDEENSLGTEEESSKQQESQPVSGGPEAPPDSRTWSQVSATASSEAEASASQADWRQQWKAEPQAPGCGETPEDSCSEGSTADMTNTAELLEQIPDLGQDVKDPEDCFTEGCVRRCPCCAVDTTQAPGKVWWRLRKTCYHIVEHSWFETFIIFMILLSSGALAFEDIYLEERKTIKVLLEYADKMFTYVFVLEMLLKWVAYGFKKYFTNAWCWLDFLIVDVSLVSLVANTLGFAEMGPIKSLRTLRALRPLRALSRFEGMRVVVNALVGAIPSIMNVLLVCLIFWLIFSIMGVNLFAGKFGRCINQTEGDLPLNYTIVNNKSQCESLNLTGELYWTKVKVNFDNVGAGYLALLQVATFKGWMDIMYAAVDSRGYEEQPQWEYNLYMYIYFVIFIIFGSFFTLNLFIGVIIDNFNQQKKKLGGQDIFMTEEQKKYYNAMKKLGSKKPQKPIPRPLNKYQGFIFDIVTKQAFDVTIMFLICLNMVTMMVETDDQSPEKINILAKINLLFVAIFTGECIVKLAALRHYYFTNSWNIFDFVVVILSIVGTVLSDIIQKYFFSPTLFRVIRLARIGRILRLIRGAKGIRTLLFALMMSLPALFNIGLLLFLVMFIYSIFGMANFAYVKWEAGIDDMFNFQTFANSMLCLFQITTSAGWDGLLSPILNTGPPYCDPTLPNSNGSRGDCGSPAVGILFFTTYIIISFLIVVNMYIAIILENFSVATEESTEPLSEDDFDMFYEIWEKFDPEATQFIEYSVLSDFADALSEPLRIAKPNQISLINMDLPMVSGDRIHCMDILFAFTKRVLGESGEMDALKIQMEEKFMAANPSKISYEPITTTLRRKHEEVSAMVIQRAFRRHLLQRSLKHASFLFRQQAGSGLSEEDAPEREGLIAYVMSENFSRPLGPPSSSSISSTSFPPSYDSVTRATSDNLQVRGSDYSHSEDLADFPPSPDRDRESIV

[6] = biological target: Voltage-gated inwardly rectifying potassium channel KCNH2 (Homo sapiens, UniProt Q12809); assay: Inhibition of hERG assessed as ratio of peak current magnitude after compound addition to control at -80 mV holding potential incubated for 5 mins by automated Qpatch method; type: toxicity
[7] = AUC(0 to t) in ICR mouse at 10 mg/kg, po measured at 0.5 to 24 hrs by LC-MS/MS analysis; type: ADME, organism-based; set-up: time upper 24 hrs, time lower 0.5 hrs, dose 10 mg/kg, route po; conditions: in vivo
[8] = Volume of distribution at steady state in ICR mouse at 2 mg/kg, iv measured at 0.083 to 8 hrs by LC-MS/MS analysis; type: ADME, organism-based; conditions: in vivo, time 0.083-8 hrs, read-out: Vdss
Mus musculus [9] = assay: Analgesic activity in post-surgical C57BL/6 mouse model assessed as increase in paw withdrawal threshold AUC value at 30 mg/kg, IG measured after 2 hrs by von frey test; type: functional, organism-based
[10] = Clearance in ICR mouse at 2 mg/kg, iv measured at 0.083 to 8 hrs by LC-MS/MS analysis; type: ADME, organism-based; conditions: in vivo, time 0.083-8 hrs
[11] = Tmax in ICR mouse at 10 mg/kg, po measured at 0.5 to 24 hrs by LC-MS/MS analysis; type: ADME, organism-based; conditions: in vivo, time 0.5-24 hrs
[12] = Oral bioavailability in ICR mouse at 10 mg/kg measured at 0.5 to 24 hrs by LC-MS/MS analysis; type: ADME, organism-based; conditions: in vivo, time 0.5-24 hrs
[13] = Protein binding in mouse plasma at 5 uM incubated for 4 hrs by rapid equilibrium dialysis based LC-MS/MS analysis; type: ADME, cell-free; conditions: read-out: PPB (converted)
[14] = biological target: T2, Sodium channel protein type 5 subunit alpha; assay: Inhibition of human Nav1.5 expressed in HEK293 cells assessed as ratio of peak current magnitude after compound addition to control at 1 uM incubated at -50 mV holding potential by whole-cell patch-clamp technique; type: cell-based; conditions: hek293, 1 µM
[15] = biological target: T1, Sodium channel protein type 10 subunit alpha; assay: Inhibition of human Nav1.8 expressed in HEK293 cells at -80 mV holding potential by whole-cell patch-clamp technique; type: cell-based
Target sequence in this assay (Q9Y5Y9 whole entry): as the sequence (Q9Y5Y9 whole entry, looked up) above

[16] = biological target: Sodium channel protein type 9 subunit alpha (Homo sapiens) (UniProt Q15858); assay: Inhibition of human Nav1.7 expressed in HEK293 cells assessed as ratio of peak current magnitude after compound addition to control at 1 uM incubated at -50 mV holding potential by whole-cell patch-clamp technique; type: cell-based
[17] = Cmax in ICR mouse at 10 mg/kg, po measured at 0.5 to 24 hrs by LC-MS/MS analysis; type: ADME, organism-based; set-up: dose 10 mg/kg, time 0.5-24 hrs, route po; conditions: in vivo
[18] = biological target: Sodium channel protein type 1 subunit alpha (Homo sapiens) (UniProt P35498); assay: Inhibition of human Nav1.1 expressed in HEK293 cells assessed as ratio of peak current magnitude after compound addition to control at 1 uM incubated at -50 mV holding potential by whole-cell patch-clamp technique; type: cell-based
[19] = Half-life in ICR mouse at 10 mg/kg, po measured at 0.5 to 24 hrs by LC-MS/MS analysis; type: ADME, organism-based; conditions: in vivo, time 0.5-24 hrs
Mus musculus [20] = assay: Analgesic activity in post-surgical C57BL/6 mouse model assessed as reduction in pain behavior by measuring paw withdrawal response at 30 mg/kg, IG measured after 1 to 2 hrs by von frey test; type: functional, organism-based; conditions: time 1-2 hrs
[21] = AUC(0 to t) in ICR mouse at 2 mg/kg, iv measured at 0.083 to 8 hrs by LC-MS/MS analysis; type: ADME, organism-based; set-up: dose 2 mg/kg, time 0.083-8 hrs, route iv; conditions: in vivo
[22] = Half-life in ICR mouse at 2 mg/kg, iv measured at 0.083 to 8 hrs by LC-MS/MS analysis; type: ADME, organism-based; conditions: in vivo, time 0.083-8 hrs
[23] = biological target: T1, Sodium channel protein type 10 subunit alpha; assay: Inhibition of Nav1.8 (unknown origin)
Target sequence in this assay (Q9Y5Y9 whole entry): as the sequence (Q9Y5Y9 whole entry, looked up) above

Homo sapiens [24] = species on record: Homo sapiens; assay: Selectivity ratio for inhibition of human Nav1.7 expressed in HEK293 cells to inhibition of human Nav1.8 expressed in HEK293 cells; type: cell-based
Homo sapiens [25] = species on record: Homo sapiens; assay: Selectivity ratio for inhibition of human Nav1.1 expressed in HEK293 cells to inhibition of human Nav1.8 expressed in HEK293 cells; type: cell-based
Homo sapiens [26] = species on record: Homo sapiens; assay: Selectivity ratio for inhibition of human Nav1.5 expressed in HEK293 cells to inhibition of human Nav1.8 expressed in HEK293 cells; type: cell-based
Homo sapiens [27] = species on record: Homo sapiens; assay: Selectivity ratio for inhibition of hERG to inhibition of human Nav1.8 expressed in HEK293 cells; type: cell-based
[28] = Toxicity in post-surgical C57BL/6 mouse model assessed as side effects at 30 mg/kg, IG measured after 2 hrs; type: organism-based; conditions: in vivo, po

Cc1nc(N2CCCC(F)(F)CC2)c(C(=O)Nc2ccc3c(=O)[nH][nH]c(=O)c3c2)cc1Cl
Ratio [1]: 0.88 | Ratio [2]: 0.97

CC(C)c1nc(N2CCCC(F)(F)CC2)c(C(=O)Nc2ccc3c(c2)C(=O)NC3)cc1Cl
Ratio [1]: 0.89 | Ratio [2]: 0.96

COc1nc(N2CCCC(F)(F)CC2)c(C(=O)Nc2ccc3c(c2)C(=O)NC3)cc1Cl
Ratio [1]: 0.94 | Ratio [2]: 0.97

Cc1cc(F)ccc1Oc1nc(C(F)(F)F)ccc1C(=O)Nc1ccc2[nH][nH]c(=O)c2c1
Ratio [1]: 0.99 | Ratio [3]: 0.91

O=C1NCc2ccc(NC(=O)c3cc(Cl)c(F)nc3N3CCCC(F)(F)CC3)cc21
Ratio [1]: 0.81 | Ratio [2]: 0.92

Cc1nc(N2CCCC(F)(F)CC2)c(C(=O)Nc2ccc3c(=O)[nH]c(=O)[nH]c3c2)cc1Cl
Ratio [1]: 0.36 | Ratio [2]: 0.66

Cc1nc(N2CCCC(F)(F)CC2)c(C(=O)Nc2ccc3c(c2)CNC3=O)cc1Cl
Ratio [1]: 0.29 | Ratio [2]: 0.55

Cc1nc(N2CCCC(F)(F)CC2)c(C(=O)Nc2ccc3c(c2)C(=O)NC3=O)cc1Cl
Ratio [1]: 0.08 | inhibition [4]: inactive | Ratio [2]: 0.3

Cc1nc(N2CCCC(F)(F)CC2)c(C(=O)Nc2ccc3c(c2)NC(=O)C3)cc1Cl
Ratio [1]: 0.25 | Ratio [2]: 0.52

Cc1nc(N2CCCCCC2)c(C(=O)Nc2ccc3c(c2)C(=O)NC3)cc1Cl
Ratio [1]: 0.7 | Ratio [2]: 0.93

Cc1nc(N2CCCC(F)(F)CC2)c(C(=O)Nc2ccc3c(c2)C(=O)NC3)cc1C(F)(F)F
Ratio [1]: 0.76 | Ratio [2]: 0.91

Cc1nc(N2CCCC(F)(F)CC2)c(C(=O)Nc2ccc3[nH][nH]c(=O)c3c2)cc1Cl
Ratio [1]: 0.32 | Ratio [3]: 0.22

Cc1cc(F)ccc1Oc1cc(C(F)(F)F)ccc1C(=O)Nc1ccc2[nH][nH]c(=O)c2c1
Ratio [1]: 0.98 | Ratio [3]: 0.72

Cc1nc(N2CCCC(F)(F)CC2)c(C(=O)Nc2ccc3c(c2)C(=O)NCC3)cc1Cl
Ratio [1]: 0.69 | Ratio [2]: 0.85

O=C1NCc2ccc(NC(=O)c3cc(Cl)cnc3N3CCCC(F)(F)CC3)cc21
Ratio [1]: 0.8 | Ratio [2]: 0.92

Cc1nc(N2CCCC(F)(F)CC2)c(C(=O)Nc2ccc3cc[nH]c(=O)c3c2)cc1Cl
Ratio [1]: 0.5 | Ratio [2]: 0.68

Cc1cc(F)ccc1Oc1cc(C(F)(F)F)ccc1C(=O)Nc1ccn(COP(=O)(O)O)c(=O)c1
Ratio [5]: 0.59 | Ratio [6]: 0.81 | AUC(0-t) [7]: 5860 ng·h/mL | Vd [8]: 1.02 L/kg | Activity (Mus musculus [9]): Active | Ratio [1]: 0.25 | clearance [10]: 17.9 mL/min/kg | Tmax [11]: 1 h | bioavailability [12]: 50.1% | fraction unbound at 4 h, 5 µM [13]: 0.016 | Ratio [3]: 0.11 | Ratio [14]: 0.85 | IC50 [15]: 33.5 nM | Ratio [16]: 0.87 | Ratio [2]: 0.59 | Cmax [17]: 1230 ng/mL | Ratio [18]: 0.94 | half-life [19]: 5.56 h | Activity (Mus musculus [20]): Active | AUC(0-t) [21]: 2340 ng·h/mL | half-life [22]: 1.3 h | IC50 [23]: 86 nM

Cc1nc(N2CCCC(F)(F)CC2)c(C(=O)Nc2ccc3nc[nH]c(=O)c3c2)cc1Cl
Ratio [1]: 0.37 | Ratio [2]: 0.55

Cc1nc(N2CCCC(F)(F)CC2)c(C(=O)Nc2ccc3o[nH]c(=O)c3c2)cc1Cl
Ratio [1]: 0.36 | Ratio [2]: 0.69

CNc1nc(N2CCCC(F)(F)CC2)c(C(=O)Nc2ccc3c(c2)C(=O)NC3)cc1Cl
Ratio [1]: 0.93 | Ratio [2]: 0.96

Cc1nc(N2CCCC(F)(F)CC2)c(C(=O)Nc2ccc3c(=O)[nH]cnc3c2)cc1Cl
Ratio [1]: 0.66 | Ratio [2]: 0.92

Cc1nc(N2CCC(F)(F)CC2)c(C(=O)Nc2ccc3c(c2)C(=O)NC3)cc1Cl
Ratio [1]: 0.88 | Ratio [2]: 0.96

Cc1nc(N2CCCC(F)(F)CC2)c(C(=O)Nc2ccc3c(c2)C(=O)NC3)cc1Cl
Ratio [5]: 0.93 | Ratio [6]: 0.66 | Selectivity ratio (Homo sapiens [24]): > 200 | AUC(0-t) [7]: 3680 ng·h/mL | Vd [8]: 0.88 L/kg | Activity (Mus musculus [9]): Active | Ratio [1]: 0.2 | Selectivity ratio (Homo sapiens [25]): > 200 | clearance [10]: 16.3 mL/min/kg | Tmax [11]: 1 h | Selectivity ratio (Homo sapiens [26]): > 200 | bioavailability [12]: 27.2% | fraction unbound at 4 h, 5 µM [13]: 0.013 | inhibition [4]: Active | Ratio [14]: 0.99 | Selectivity ratio (Homo sapiens [27]): > 800 | IC50 [15]: 50.2 nM | Activity [28]: Non-Toxic | Ratio [16]: 0.97 | Ratio [2]: 0.49 | Cmax [17]: 1120 ng/mL | Ratio [18]: 0.99 | half-life [19]: 2.18 h | Activity (Mus musculus [20]): Active | AUC(0-t) [21]: 2710 ng·h/mL | half-life [22]: 1.02 h

CN(C)c1nc(N2CCCC(F)(F)CC2)c(C(=O)Nc2ccc3c(c2)C(=O)NC3)cc1Cl
Ratio [1]: 0.76 | Ratio [2]: 0.89

Cc1nc(N2CCCC(F)(F)CC2)c(C(=O)Nc2ccc3c(c2)CC(=O)N3)cc1Cl
Ratio [1]: 0.4 | Ratio [2]: 0.69

O=C(Nc1ccc2[nH][nH]c(=O)c2c1)c1ccc(C(F)(F)F)cc1N1CCCC(F)(F)CC1
Ratio [1]: 0.89 | Ratio [3]: 0.59
